Our source for the pKa values is patent US7669997B2, “Ink-jet textile printing method” (Konica Minolta Holdings, Inc., priority 2004, dated 2010).

The data set is described as follows: pKa (acid dissociation constant) of dispersing agents and acids. The class given is physicochemical. As to conditions: acid of pretreatment solution. The source says: The pKa value, as described in the present invention, is also called an acid dissociation constant, which is detailed, for example, in Buichi Sakaguchi and Keihei Ueno, Kinzoku Chelates [III] (Metal Chelates [III]), Nanko Do, which describes pKa values of acidic dissociating groups. Further, it is possible to determine the pKa of compounds, which are not described in the above reference, employing conventional methods. For example, it is possible to determine the pKa employing the method described, for example, in Jikken Kagaku Koza 5 Netsuteki Sokutei oyobi Heiko (Experimental Chemistry Lecture 5 Thermal Measurements and Equilibrium) page 460, edited by Nihon Kagaku Kai, Maruzen Co., Ltd.

For the molecule `O=C(O)/C=C\C(=O)O` [maleic acid], the pKa runs as follows: (first listed pKa value) below 2; (second listed pKa value) 5.8.
